Measured values: ChEMBL document CHEMBL5331054, “Antibacterial quaternary ammonium agents: Chemical diversity and biological mechanism” (Eur J Med Chem, 2022)
pIC50: −log10 of the molar value. Values belong to the compound of their own block, whether it stands above or below them.

What was measured:
[1] = tested on: Staphylococcus aureus; experiment: Antibacterial activity against Staphylococcus aureus assessed as bacterial growth inhibition incubated for 72 hrs by microdilution assay; assay type: functional, organism-based; details: for MIC: Staphylococcus aureus, time 72 hrs
[2] = tested on: Escherichia coli; experiment: Antibacterial activity against Escherichia coli assessed as bacterial growth inhibition incubated for 72 hrs by microdilution method; assay type: functional
[3] = tested on: Pseudomonas aeruginosa; experiment: Antibacterial activity against Pseudomonas aeruginosa assessed as bacterial growth inhibition incubated for 72 hrs by microdilution method; assay type: functional
[4] = tested on: Staphylococcus aureus; experiment: Antibacterial activity against methicillin-resistant Staphylococcus aureus assessed as bacterial growth inhibition; assay type: functional
[5] = tested on: Staphylococcus aureus; experiment: Antibacterial activity against Staphylococcus aureus ATCC 700699 assessed as reduction in bacterial growth inhibition incubated for 24 hrs by microbroth-dilution method; assay type: functional
[6] = tested on: Staphylococcus aureus; experiment: Antibacterial activity against Staphylococcus aureus assessed as bacterial growth inhibition; assay type: functional
[7] = tested on: Enterococcus faecalis; experiment: Antibacterial activity against Enterococcus faecalis assessed as bacterial growth inhibition incubated for 72 hrs by microdilution method; assay type: functional
[8] = tested on: Staphylococcus aureus; experiment: Antimicrobial activity against Staphylococcus aureus assessed as reduction in bacterial growth; assay type: functional
[9] = tested on: Escherichia coli; experiment: Antibacterial activity against Escherichia coli assessed as reduction bacterial cell growth; assay type: functional
[10] = tested on: Pseudomonas aeruginosa; experiment: Antibacterial activity against Pseudomonas aeruginosa assessed as inhibition of bacterial cell growth; assay type: functional
[11] = tested on: Enterococcus faecalis; experiment: Antibacterial activity against Enterococcus faecalis assessed as reduction in bacterial cell growth; assay type: functional
[12] = tested on: Staphylococcus aureus; experiment: Antibacterial activity against methicillin-sensitive Staphylococcus aureus assessed as reduction microbial growth; assay type: functional
[13] = tested on: Staphylococcus aureus; experiment: Antibacterial activity against methicillin-resistant Staphylococcus aureus assessed as bacterial growth inhibition measured after 16 hrs by microplate reader assay; assay type: functional
[14] = tested on: Staphylococcus epidermidis; experiment: Antibacterial activity against methicillin-resistant Staphylococcus epidermidis assessed as bacterial growth inhibition measured after 16 hrs by microplate reader assay; assay type: functional
[15] = tested on: Enterococcus faecium; experiment: Antibacterial activity against vancomycin-resistant Enterococcus faecium 700221 assessed as reduction in bacterial growth inhibition measured after 16 hrs by microplate reader assay; assay type: functional
[16] = tested on: Staphylococcus aureus; experiment: Antibacterial activity against Staphylococcus aureus NBRC 12732 assessed as reduction in bacterial growth by CLSI based broth microdilution method; assay type: functional
[17] = tested on: Streptococcus pyogenes; experiment: Antibacterial activity against Streptococcus pyogenes ATCC 19615 assessed as reduction in bacterial growth incubated for 18 hrs by micro-broth dilution assay; assay type: functional
[18] = tested on: Staphylococcus aureus; experiment: Antibacterial activity against Staphylococcus aureus ATCC 29213 assessed as bacterial growth inhibition incubated for 24 hrs by broth dilution method; assay type: functional
[19] = tested on: Pseudomonas aeruginosa; experiment: Antibacterial activity against Pseudomonas aeruginosa assessed as reduction in bacterial cell growth; assay type: functional
[20] = tested on: Klebsiella pneumoniae; experiment: Antibacterial activity against Klebsiella pneumoniae assessed as reduction in bacterial growth; assay type: functional
[21] = tested on: Acinetobacter baumannii; experiment: Antibacterial activity against Acinetobacter baumannii assessed as inhibition of bacterial cell growth; assay type: functional
[22] = tested on: Staphylococcus aureus; experiment: Antibacterial activity against Staphylococcus aureus CCM 451608 assessed as reduction in bacterial growth inhibition incubated for 24 hrs by microbroth dilution method; assay type: functional
[23] = tested on: Staphylococcus aureus; experiment: Antibacterial activity against Staphylococcus aureus CCM 451608 assessed as reduction in bacterial growth inhibition incubated for 48 hrs by microbroth dilution method; assay type: functional
[24] = tested on: Staphylococcus aureus; experiment: Antibacterial activity against methicillin-resistant Staphylococcus aureus assessed as log reduction in bacterial load measured after 60 mins; assay type: functional; details: 1 h
[25] = tested on: Escherichia coli; experiment: Antibacterial activity against Escherichia coli ATCC 25922 assessed as reduction in bacterial growth incubated for 24 hrs by micro-dilution method; assay type: functional
[26] = tested on: Staphylococcus aureus; experiment: Antibiofilm activity against methicillin-resistant Staphylococcus aureus assessed as inhibition of biofilm formation; assay type: functional
[27] = Escherichia coli, 72 h, read-out: MIC
[28] = Pseudomonas aeruginosa, 72 h, read-out: MIC

MIC [2]: 20 µM | MIC [3]: 300 µM
SMILES: CCCCCCCCCCCCOC(=O)C[N+](C)(C)CCC[N+](C)(C)CC(=O)OCCCCCCCCCCCC.[Br-].[Br-]
pIC50 [1]: 4.70

MIC [5]: 1 mg/L
SMILES: CCCCCCCCCCCCCCCCCC[N+](C)(C)Cc1cnc(C)c(OC(C)=O)c1C.[Cl-]

MIC [6]: 8 mg/L
SMILES: CCCCCCCCS(=O)(=O)Nc1ccc(-c2ccc(Cl)cc2)cc1C(=O)C(=O)NCCC[N+](C)(C)C.[I-]

MIC [1]: 1 µM | MIC [7]: 1 µM | MIC [2, 27]: 1 µM | MIC [3, 28]: 4 µM
SMILES: CCCCCCCCCCCC[N+](C)(C)CCCCC[N+](C)(C)CCCCCCCCCCCC

MIC [12]: 0.5 µM
SMILES: CCCCCCCCCCCC[N+](C)(C)CCC[N+](C)(C)CCC[N+](C)(C)CCCCCCCCCCCC

MIC [16]: 6.25 mg/L
SMILES: C[N+](CCO)(CCO)CCCCCCCCCCCCSc1nnc(-c2ccccc2)o1.[Br-]

MIC [1]: 2 µM | MIC [7]: 1 µM | MIC [2, 27]: 1 µM | MIC [3, 28]: 4 µM
SMILES: CCCCCCCCCCCC[N+](C)(C)CCC[N+](C)(C)CCCCCCCCCCCC

MIC [1]: 1 µM | MIC [7]: 1 µM | MIC [2, 27]: 2 µM | MIC [3, 28]: 4 µM
SMILES: CCCCCCCCCCCC[N+](C)(C)CC[N+](C)(C)CCCCCCCCCCCC

MIC [25]: 5 mg/L
SMILES: CC1(C)[C@@H]2CC[C@H](CC[N+](C)(C)CC[C@H]3CC[C@@H]4C[C@H]3C4(C)C)[C@H]1C2.[I-]

MIC [1]: > 500 µM | MIC [7]: > 500 µM | MIC [2, 27]: > 500 µM | MIC [3, 28]: > 500 µM
SMILES: C[N+](C)(C)CC[N+](C)(C)C

MIC [2]: 200 µM | MIC [3]: 40 µM
SMILES: CCCCCCCCCCCCOC(=O)C[N+](C)(C)CCC[N+](C)(C)CC(=O)OCCCCCCCCCCCC.[Cl-].[Cl-]
pIC50 [1]: 3.92

MIC [8]: 0.25 µM
SMILES: CCCCCCCCCCCC[N+](C)(C)c1ccc(C(c2ccc(N(C)C)cc2)c2ccc(N(C)C)cc2)cc1

MIC [1]: > 500 µM | MIC [7]: > 500 µM | MIC [2, 27]: > 500 µM | MIC [3, 28]: > 500 µM
SMILES: C[N+](C)(C)CCCCC[N+](C)(C)C [PENTAMETHONIUM BROMIDE]

More lines, now with the values behind:

SMILES: CCCCCCCCCCC[n+]1cccc(Oc2ccc(Oc3ccc[n+](CCCCCCCCCCC)c3)cc2)c1.[Br-].[Br-]
MIC [4]: < 0.25 mg/L

SMILES: CCCCCCCCCCCCCCCCCC[N+](CC)(CC)c1ccc(C(c2ccc([N+](C)(CC)CC)cc2)c2ccc([N+](C)(CC)CC)cc2)cc1
MIC [4]: 0.5 µM | MIC [8]: 1 µM | MIC [9]: 1 µM | MIC [10]: 8 µM | MIC [11]: 1 µM

SMILES: CCCCCCCCCCCCCCCCn1cc[n+](Cc2cccc(F)c2)c1C
MIC [13]: 1.17 µM | MIC [14]: 1.17 µM | MIC [15]: 1.17 µM

SMILES: CCCCCCCCCCCCCCC[n+]1ccn(Cc2ccccc2)c1.[Br-]
MIC [17]: 0.03 mg/L

SMILES: CCCC1OCc2c(CO)c(C[N+](C)(C/C=C/C#CC(C)(C)C)Cc3cccc4ccccc34)nc(C)c2O1.[Br-] (stereo unspecified)
MIC [18]: 4 mg/L

SMILES: CCCCCCCCC[n+]1ccc(Oc2ccc(-c3ccc(Oc4cc[n+](CCCCCCCCC)cc4)cc3)cc2)cc1.[Br-].[Br-]
MIC [4]: < 0.25 mg/L | MIC [9]: < 0.25 mg/L | MIC [19]: < 0.25 mg/L | MIC [20]: < 0.25 mg/L | MIC [21]: < 0.25 mg/L

SMILES: CCCCCCCCCCCCCCCC[n+]1ccc(C=NO)cc1
MIC [22]: 0.98 µM | MIC [23]: 0.98 µM

SMILES: CCCCCCCCCCC[n+]1cccc(Oc2cccc(Oc3ccc[n+](CCCCCCCCCCC)c3)c2)c1.[Br-].[Br-]
MIC [4]: < 0.25 mg/L | MIC [9]: < 0.25 mg/L | MIC [20]: < 0.25 mg/L | MIC [21]: < 0.25 mg/L | MIC [10]: < 0.25 mg/L

SMILES: CC1(C)C(=O)N(CCC[N+](C)(C)CC[N+](C)(C)C)C(=O)N1Cl.[Cl-].[Cl-]
log(activity) [24]: 2.36

SMILES: CCCCCCCCCCCC[N+](C)(C)CCN(C)CC[N+](C)(C)CCCCCCCCCCCC
MIC [1]: 1 µM | MIC [7]: 2 µM | MIC [2, 27]: 1 µM | MIC [3, 28]: 4 µM | MIC [26]: 1 µM
